US8188271B2, “Polycyclic carbamoylpyridone derivative having HIV integrase inhibitory activity” (Shionogi & Co., Ltd., priority 2005, dated 2012)

Biological target: HIV integrase (Human immunodeficiency virus type 1 group M subtype B, UniProt P04585)
Test: HIV integrase inhibitory activity assay (strand transfer, immunoplate, OD405)
Type: biochemical
Conditions: HIV integrase inhibition rate, absorbance OD405 nm
Experimental: The HIV integrase inhibitory activity was investigated based on the following assay method.
(1) Preparation of DNA Solution
By the same method as that described in Experimental Example 1 of WO 2004/024693, a substrate DNA solution (2 μmol/μl) and a target DNA solution (5 μmol/μl) were prepared. […] Each sequence of a substrate DNA and a target DNA is as described in the same Experimental Example.
(2) Measurement of Inhibition Rate (IC50 Value)
Streptavidin (manufactured by Vector Laboratories) was dissolved in a 0.1 M carbonate buffer solution (composition: 90 mM Na2CO3, 10 mM NaHCO3) to a concentration of 40 μg/ml. Each 50 μl of this solution was added to a well of an immunoplate (manufactured by NUNC), and this is allowed to stand at 4° C. overnight to adsorb. Then, each well was washed with a phosphate buffer (composition: 13.7 mM NaCl, 0.27 mM KCl, 0.43 mM Na2HPO4, 0.14 mM KH2PO4) two times, and 300 μl of a phosphate buffer containing 1% skim milk was added to block it for 30 minutes. Further, each well was washed with a phosphate buffer two times, […] of a substrate DNA solution (2 μmol/μl) was added to adsorb at room temperature for 30 minutes while shaking, and this was washed with a phosphate buffer two times and, then, distilled water once.
Then, to each well prepared as described above were added 12 μl of a buffer (composition: 150 mM MOPS (pH7.2), 75 mM MnCl2, 50 mM 2-mercaptoethanol, 25% glycerol, 500 μg/ml bovine serum albumin-fraction V), and 51 μl of a reaction solution prepared from […] of distilled water. Then, 9 μl of an integrase solution (30 μmol) was added, and the mixture was mixed well. To a well as a negative control (NC) was added 9 μl of a diluting solution (composition: 20 mM MOPS (pH7.2), 400 mM potassium glutamete, 1 mM EDTA, 0.1% NP-40, 20% glycerol, 1 mM DTT, 4 M urea), and this was mixed well using a plate mixer.
After the plate was incubated at 30° C. for 60 minutes, the reaction solution was discarded, followed by washing with 250 μl of a washing buffer (composition: 150 mM MOPS (pH7.2), 50 mM 2-mercaptoethanol, 25% glycerol, 500 μg/ml bovine serum albumin-fraction V) three times.
Then, to each well were added 12 μl of a buffer (composition: 150 mM MOPS (pH7.2), 75 mM MgCl2, 50 mM 2-mercaptoethanol, 25% glycerol, 500 μg/ml bovine serum albumin-fraction V), and 53 μl of a reaction solution prepared from 41 μl of distilled water. Further, 6 μl of a solution of a test compound in DMSO was added to each well, and 6 μl of DMSO was added to a well as a positive control (PC), followed by mixing well using a plate mixer. […]
C abs.; absorbance of well of compound
NC abs.: absorbance of NC
PC abs.: absorbance of PC

Question: CN1CN(C[C@H]2CCCO2)C(=O)c2c(O)c(=O)c(C(=O)NCc3ccc(F)cc3F)cn21 [Example N-16, 5-Hydroxy-1-methyl-4,6-dioxo-3-[(R)-1-(tetrahydro-furan-2-yl)methyl]-2,3,4,6-tetrahydro-1H-pyrid[2,1-f][1,2,4]triazine-7-carboxylic acid 2,4-difluoro-benzylamide] was tested. Which IC50 did it give?
Answer: 2.6 nM

Question: For CN1CN(C[C@@H]2CCCO2)C(=O)c2c(O)c(=O)c(C(=O)NCc3ccc(F)cc3F)cn21 [Example N-15, 5-Hydroxy-1-methyl-4,6-dioxo-3-[(S)-1-(tetrahydro-furan-2-yl)methyl]-2,3,4,6-tetrahydro-1H-pyrid[2,1-f][1,2,4]triazine-7-carboxylic acid 2,4-difluoro-benzylamide], which IC50 is on record?
Answer: 3.3 nM

Question: Which IC50 does the source give for O=C(NCc1ccc(F)cc1F)c1cn2c(c(O)c1=O)C(=O)N(CCN1CCOCC1)CN2 [Example O-07, 5-Hydroxy-3-(2-morpholin-4-yl-ethyl)-4,6-dioxo-2,3,4,6-tetrahydro-1H-pyrid[2,1-f][1,2,4]triazine-7-carboxylic acid 2,4-difluoro-benzylamide] here?
Answer: 4.8 nM

Question: With O=C(NCc1ccc(F)cc1F)c1cn2c(c(O)c1=O)C(=O)N(C[C@@H]1CCCO1)CN2 [Example O-06, 5-Hydroxy-4,6-dioxo-3-[(S)-1-(tetrahydro-furan-2-yl)methyl]-2,3,4,6-tetrahydro-1H-pyrid[2,1-f][1,2,4]triazine-7-carboxylic acid 2,4-difluoro-benzylamide] as the molecule, how does the IC50 read?
Answer: 3.8 nM
